The values below come from US6849661B2, “Treatment of abnormal increases in gastrointestinal motility with (R)-verapamil” (AGI Therapeutics, Ltd., priority 2002, dated 2005).

In one assay the test system is rat colon tissue. Nature of the assay: Relaxation of KCl (80 mM)-induced contractions in rat colon tissue (tissue bath). As to conditions: for IC50 / pIC50 (−log M), Colon: KCl 80 mM contracted rat colon. It counts as cell-based. Here is the method:
Rat colon tissue was prepared and mounted in a tissue bath by standard methods familiar to those skilled in the art. The physiological medium contained KCl at a concentration of 80 mM, which produces contractions of the colon tissue. […] Potency was expressed as the concentration producing 50% of […] (IC50) or as the negative logarithm of the IC50 (pIC50).
Other compounds were tested for their ability to relax the KCl contractions, or block the relaxing action of verapamil.

A further assay concerns rat vas prostatic tissue. As to the kind of experiment: Contractions to electrical stimulation in rat vas deferens, prostatic portion. As to conditions: FIG. 3. It counts as cell-based. The source says:
(§1) In rat vas deferens there are two components to nerve stimulation, an […] component, dominant in the epididymal portion, and a non-adrenergic (purinergic) component, dominant in the prostatic portion. […] (Brown et al., Br J Pharmacol., 79:379-393, 1983).

Another assay concerns rat aortic tissue. The following applies: for pIC50 (−log M), Aorta / IC50: KCl 80 mM contracted rat aorta; for IC50: read-out: IC50 (M), Aorta. Here is the method:
Rat aortic tissue was prepared and mounted in a tissue bath by standard methods familiar to those skilled in the art. The physiological medium contained KCl at a concentration of 80 mM, which produces contractions of the aortic tissue.

The test system of assay [1] is rat vas epididymal tissue. Nature of the assay: Contractions in rat vas deferens, epididymal portion (in the presence of nifedipine). It is filed as cell-based. As to conditions: high concentrations, FIG. 3.
Description: as §1

Values joined by “and” are separate entries in the source; they are usually repeats but may differ in a detail not shown here. Identical values can stand only once. Like-named read-outs stand apart in the source and are kept apart here.

For `Cc1cccc(C)c1N=C1NCCCS1` [Xylazine], in the assay with rat colon tissue (rat colon), the “ability to relax the KCl contractions” value is recorded as “small relaxation of the contractions, but only at the highest concentration tested (10^−4M)”.

Broadly, the IC50 is the concentration needed to halve the response being measured. With `COc1ccc(CCN(C)CCC[C@](C#N)(c2ccc(OC)c(OC)c2)C(C)C)cc1OC` [(R)-verapamil], the IC50 was 851 nM in the assay on rat colon tissue; 4.47e-06 M and 4.78e-06 M in the assay with rat aortic tissue; 4.47e-06 M with rat aortic tissue (listed as R Isomer). The results for the “pIC50 (−log M), Colon” value in the assay on rat colon tissue and in the assay on rat colon tissue (listed as R Isomer) were 6.07±0.16 −log M and 6.07 −log M, respectively. The “times less potent than (S)-verapamil in the intestine” value with rat colon tissue (rat colon) was “three”. The “effect on contractions to electrical stimulation in vas prostatic tissue” value in the assay on rat vas prostatic tissue is listed as “neither (R)-verapamil nor (S)-verapamil abolished contractions”. Further, the figures for the “pIC50 (−log M), Aorta” value in the assay on rat aortic tissue and in the assay on rat aortic tissue (listed as R Isomer) were 5.35±0.24 −log M and 5.35 −log M, respectively. Besides, in the assay with rat aortic tissue (rat aorta), the “times less potent than (S)-verapamil in the aorta” value was 10 times. Besides, in assay [1], the “effect on epididymal contraction” value is listed as “reduced this epididymal contraction”.

Regarding `COc1cc2nc(N3CCN(C(=O)c4ccco4)CC3)nc(N)c2cc1OC` [Prazosin], the “ability to relax the KCl contractions” value in the assay on rat colon tissue (rat colon) is reported as “did not significantly relax KCl contractions”.

As to `COc1ccc(Cl)cc1C(=O)NCCc1ccc(S(=O)(=O)NC(=O)NC2CCCCC2)cc1` [Glibenclamine], the “ability to block the relaxing action of verapamil on KCl contractions” value with rat colon tissue (rat colon) is listed as “did not block the verapamil-induced relaxations”.

Take `COc1ccc(CCN(C)CCC[C@@](C#N)(c2ccc(OC)c(OC)c2)C(C)C)cc1OC` [(S)-verapamil]: in the assay with rat colon tissue, the IC50 was determined as 295 nM; the “pIC50 (−log M), Colon” value is 6.53±0.13 −log M and 6.32±0.03 −log M. Besides, the “times more potent than (R)-verapamil in colon” value with rat colon tissue (rat colon, concentrations tested 1-100 μM) is listed as “approximately 3 times”. The “effect on contractions to electrical stimulation in vas prostatic tissue” value with rat vas prostatic tissue is given as “neither (R)-verapamil nor (S)-verapamil abolished contractions”. Also, in the assay with rat aortic tissue, the “pIC50 (−log M), Aorta” value was 6.32±0.03 −log M and the IC50 was determined as 4.78e-07 M. In assay [1], the “effect on epididymal contraction” value is on record as “reduced this epididymal contraction”.
